18 molecules from ChEMBL document CHEMBL5149966, “Bisphosphonates, Old Friends of Bones and New Trends in Clinics” (J Med Chem, 2021) can be followed below.

One series has as its system Toxoplasma gondii. The series is described as follows: Antiparasitic activity against Toxoplasma gondii tachyzoites infected in human foreskin fibroblast incubated for 48 hrs followed by [5,6-3H]uracil addition and measured after 4 hrs by scintillation counter analysis. The series is classed as functional, organism-based. As to conditions: type III.
The test system of another series is Leishmania donovani. The experiment in a line: Antiparasitic activity against amastigote stage Leishmania donovani MHOM/ET/67/L82 infected in CD-1 mouse peritoneal macrophage assessed as reduction in parasite burden incubated for 5 days by Giemsa staining based microscopy. As to conditions: MHOM/ET/67/L82, Peritoneal macrophage, 120 h. The series is classed as functional, organism-based.

The test system of a further series is Plasmodium falciparum. The series is described as follows: Antiparasitic activity against Plasmodium falciparum 3D7 infected in human erythrocyte assessed as intraerythrocytic growth inhibition incubated for 24 hrs followed by [3H]hypoxanthine addition by microbeta scintillation counter analysis. As to conditions: 3D7, Erythrocyte. The series is classed as functional, organism-based.

Series [1] concerns Entamoeba histolytica. The series is described as follows: Antiparasitic activity against Entamoeba histolytica trophozoites infected in hamster liver to induce hepatic abscess assessed as reduction in liver abscess formation at 10 mg/kg, ip for 5 days. As to conditions: time 5 day. The arrangement: scale not given: the % may be the effect or the level left. In kind it is functional.

Series [2] concerns Trypanosoma brucei rhodesiense. The series is described as follows: Antiparasitic activity against Trypanosoma brucei rhodesiense STIB900 bloodstream trypomastigotes assessed as parasite growth inhibition incubated for 3 days by Alamar Blue fluorometric assay. The series is classed as functional, organism-based. As to conditions: STIB900, 72 h. For orientation: Resazurin is reduced to fluorescent resorufin, in cell work by metabolically active cells.

The subject of series [3] is Entamoeba histolytica. The experiment in a line: Antiparasitic activity against Entamoeba histolytica trophozoites assessed as parasite growth inhibition incubated for 90 hrs followed by [3H]hypoxanthine addition and measured after 6 hrs by scintillation counter analysis. In kind it is functional, organism-based.
For series [4], the target named is T1, Ditrans,polycis-undecaprenyl-diphosphate synthase ((2E,6E)-farnesyl-diphosphate specific) (Escherichia coli (strain K12), UniProt P60472).
T1 sequence (P60472 whole entry): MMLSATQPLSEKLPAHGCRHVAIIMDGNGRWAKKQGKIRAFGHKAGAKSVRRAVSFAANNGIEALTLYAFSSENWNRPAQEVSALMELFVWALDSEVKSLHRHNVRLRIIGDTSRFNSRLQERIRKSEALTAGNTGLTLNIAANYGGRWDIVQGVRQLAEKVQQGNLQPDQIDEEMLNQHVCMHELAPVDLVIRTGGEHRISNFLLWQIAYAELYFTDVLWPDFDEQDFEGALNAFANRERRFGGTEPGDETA
The experiment in a line: Inhibition of Escherichia coli UPPS.

A further series deals with Plasmodium berghei. The experiment in a line: Antiparasitic activity against Plasmodium berghei ANKA infected in BALB/c mouse assessed as reduction in parasitemia at 25 mg/kg, ip for 4 days. The series is classed as functional. On the set-up: scale not given: the % may be the effect or the level left. As to conditions: time 4 day.
The species entered for a further series is Rattus norvegicus. The series is described as follows: Anti-osteoclast activity rat assessed as inhibition of bone resorption relative to control. In kind it is functional.
Series [5] can be described thus: Drug distribution in NMRI mouse spleen at 4.2 mg/kg administered as C14-lableled compound and assessed as radioactivity and measured upto 2 hrs. In kind it is ADME, organism-based. As to conditions: in vivo.
A short description of series [6]: Drug distribution in NMRI mouse liver at 4.2 mg/kg administered as C14-lableled compound and assessed as radioactivity and measured upto 2 hrs. The series is classed as ADME, organism-based. As to conditions: in vivo.
Series [7] in a line: Drug uptake in Beagle dog knee cartilage at 0.15 mg/kg, iv administered as C14-lableled compound and assessed as radioactivity after 96 hrs by autoradiography. In kind it is ADME, organism-based, Canis lupus familiaris, Cartilage tissue. As to conditions: in vivo.
Series [8] in a line: Drug uptake in Beagle dog liver at 0.15 mg/kg, iv administered as C14-lableled compound and assessed as radioactivity after 96 hrs by autoradiography. In kind it is ADME, organism-based, Canis lupus familiaris. As to conditions: in vivo.
Series [9] in a line: Drug uptake in Beagle dog thyroid gland at 0.15 mg/kg, iv administered as C14-lableled compound and assessed as radioactivity after 96 hrs by autoradiography. In kind it is ADME, organism-based, Canis lupus familiaris. As to conditions: in vivo.
Series [10] in a line: Drug uptake in Beagle dog spleen at 0.15 mg/kg, iv administered as C14-lableled compound and assessed as radioactivity after 96 hrs by autoradiography. In kind it is ADME, organism-based, Canis lupus familiaris. As to conditions: in vivo.
Series [11] can be described thus: Drug uptake in Beagle dog aorta at 0.15 mg/kg, iv administered as C14-lableled compound and assessed as radioactivity after 96 hrs by autoradiography. In kind it is ADME, organism-based, Canis lupus familiaris. As to conditions: in vivo.
Series [12] in a line: Drug uptake in Beagle dog skin at 0.15 mg/kg, iv administered as C14-lableled compound and assessed as radioactivity after 96 hrs by autoradiography. In kind it is ADME, organism-based, Canis lupus familiaris, Skin of body. As to conditions: in vivo.
Series [13] is described as follows: Drug uptake in Beagle dog sciatic nerve at 0.15 mg/kg, iv administered as C14-lableled compound and assessed as radioactivity after 96 hrs by autoradiography. The series is classed as ADME, organism-based, Canis lupus familiaris. As to conditions: in vivo.
A short description of series [14]: Drug uptake in Beagle dog adrenal tissue at 0.15 mg/kg, iv administered as C14-lableled compound and assessed as radioactivity after 96 hrs by autoradiography. In kind it is ADME, organism-based, Canis lupus familiaris. As to conditions: in vivo.
Series [15] can be described thus: Drug uptake in Beagle dog small intestine at 0.15 mg/kg, iv administered as C14-lableled compound and assessed as radioactivity after 96 hrs by autoradiography. The series is classed as ADME, organism-based, Canis lupus familiaris. As to conditions: in vivo.
Series [16] in a line: Drug uptake in Beagle dog pancreas at 0.15 mg/kg, iv administered as C14-lableled compound and assessed as radioactivity after 96 hrs by autoradiography. In kind it is ADME, organism-based, Canis lupus familiaris. As to conditions: in vivo.
For the next series, the system named is Trypanosoma cruzi. The series is described as follows: Antiparasitic activity against Trypanosoma cruzi amastigotes infected in vero cells assessed as parasite growth inhibition incubated for 48 hrs by light microscopy. In kind it is functional, organism-based.
A short description of series [17]: Drug uptake in Beagle dog heart at 0.15 mg/kg, iv administered as C14-lableled compound and assessed as radioactivity after 96 hrs by autoradiography. The series is classed as ADME, organism-based, Canis lupus familiaris. As to conditions: in vivo.
The nature of series [18]: Drug uptake in Beagle dog lung at 0.15 mg/kg, iv administered as C14-lableled compound and assessed as radioactivity after 96 hrs by autoradiography. In kind it is ADME, organism-based, Canis lupus familiaris. As to conditions: in vivo.

Some results are limits rather than exact numbers.

For the molecule `O=P(O)(O)C(O)(CCc1cccnc1)P(=O)(O)O`, the 50% inhibitory concentration (IC50) in the series with Toxoplasma gondii, with Leishmania donovani and with Plasmodium falciparum was over 200 µM throughout.
Consider `CCCCCCCCCCC(O)(P(=O)(O)O)P(=O)(O)O`, for which the IC50 in the series with Toxoplasma gondii amounted to 0.28 µM. Moreover, the Activity in the series on Entamoeba histolytica [1] is listed as 68%.
Consider `CCCCCC(O)(P(=O)(O)O)P(=O)(O)O`, for which the IC50 in the series with Toxoplasma gondii was 9.1 µM; in the series on Leishmania donovani, over 200 µM; in the series with Plasmodium falciparum it was 130 µM; in [2], 92 µM.
As to `O=P(O)(O)C(O)(Nc1cccc(-c2ccccc2)c1)P(=O)(O)O`, the IC50 with Plasmodium falciparum was over 200 µM; in the series on Entamoeba histolytica [3] it was 6.6 µM.
The like results for `O=P(O)(O)C(O)(Nc1ccc(-c2ccccc2)cc1)P(=O)(O)O` were, in that order, 76.6 µM and 8.76 µM.
In turn, `O=P(O)(O)C(O)(Cc1cccc(-c2cccc3oc4ccccc4c23)c1)P(=O)(O)O` yielded an IC50 in [4] of 0.59 µM.
With `CCCCCCCCNC(O)(P(=O)(O)O)P(=O)(O)O`, the IC50 in series [2] came to 1.7 µM.
In the case of `CCCC(O)(P(=O)(O)O)P(=O)(O)O`, in the series on Plasmodium berghei, the Activity is given as 80%. In addition, the figures for the IC50 in the series with Plasmodium falciparum and in the series with Entamoeba histolytica [3] were 5.53 µM and 157 µM, respectively.
Regarding `CCCCCCCCCC(O)(P(=O)(O)O)P(=O)(O)O`, the figures for the IC50 with Toxoplasma gondii and in the series on Plasmodium falciparum were 0.55 µM and 0.83 µM, respectively.
For the molecule `Cc1cccnc1NC(P(=O)(O)O)P(=O)(O)O`, the IC50 with Plasmodium falciparum was over 200 µM.
On to `CC(N)CC(O)(P(=O)(O)O)P(=O)(O)O` (stereo not drawn), for which the IC50 in the series on Leishmania donovani and with Plasmodium falciparum was over 200 µM in each case.
As to `NCCCC(O)(P(=O)(O)O)P(=O)(O)O` [ALENDRONIC ACID], in the series filed under Rattus norvegicus, the “fold change (FC)” value is 400.
On to `O=P(O)(O)C(Cl)(Cl)P(=O)(O)O` [CLODRONIC ACID], for which the “fold change (FC)” value in the series filed under Rattus norvegicus is 10.
On to `CC(O)(P(=O)(O)O)P(=O)(O)O` [ETIDRONIC ACID], for which the “fold change (FC)” value in the series listed under Rattus norvegicus was 1.
For `CCCCCN(C)CCC(O)(P(=O)(O)O)P(=O)(O)O` [IBANDRONIC ACID], in the series listed under Rattus norvegicus, the “fold change (FC)” value was found to be 1000.
Turning to `NCCC(O)(P(=O)(O)O)P(=O)(O)O` [PAMIDRONIC ACID], the Drug uptake in [5] and in [6] was 20% each time. The “fold change (FC)” value in the series listed under Rattus norvegicus worked out at 100.
In the case of `O=P(O)(O)C(O)(Cc1cccnc1)P(=O)(O)O` [RISEDRONIC ACID], the “fold change (FC)” value in the series filed under Rattus norvegicus was found to be 2000.
Regarding `O.O=P(O)(O)C(O)(Cn1ccnc1)P(=O)(O)O` [ZOLEDRONIC ACID], the Drug uptake in series [7] is given as 0.15 nmol/g; in [8], over 0.1 nmol/g; in [9] it was 0.3 nmol/g; in [10], over 0.1 nmol/g; in series [11], over 0.1 nmol/g; in [12] it was over 0.1 nmol/g. Moreover, the Drug uptake in series [13], in [14], in series [15], in series [16], in series [17] and in series [18] was over 0.1 nmol/g throughout. In addition, the IC50 in the series on Toxoplasma gondii was 6.7 µM; in the series on Plasmodium falciparum, over 200 µM; in series [2], 8.6 µM; in the series on Trypanosoma cruzi it was 35 µM. In the series filed under Rattus norvegicus, the “fold change (FC)” value is given as 6700.

A word on the IC50: it is the point on the concentration scale where inhibition reaches its midpoint.
